Literature values as cited in patent publication US12208061B2 (EXORAO LIFE SCIENCE S.R.L., priority 2019, dated 2025).
Like-named read-outs stand apart in the source and are kept apart here.

Assays:
[1] = system: gram-positive bacteria or anaerobes; conditions: against gram-positive bacteria or anaerobes
[2] = solution for intravenous infusion
[3] = system: gram-negative aerobic pathogens including Pseudomonas aeruginosa; conditions: in vitro

- time within which reconstituted solution should be used ([2]; controlled room temperature): ≤ 48 h
- time within which reconstituted solution should be used ([2]; refrigerated at 2° C. to 8° C.): within seven days
Compound: C[C@H]1[C@H](NC(=O)/C(=N\OC(C)(C)C(=O)O)c2csc(N)n2)C(=O)N1S(=O)(=O)O [Aztreonam, (Z)-2-[[[(2-amino-4-thiazolyl)[[(2S,3S)-2-methyl-4-oxo-1-sulfo-3-azetidinyl]carbamoyl]methylene]amino]oxy]-2-methylpropionic acid]
- antimicrobial activity [1]: no useful activity
- pH range over which antimicrobial activity is maintained [3]: 6 to 8
